Measured values: patent US10335494B2, “Combination of aurora kinase inhibitors and anti-CD30 antibodies” (Millennium Pharmaceuticals, Inc., priority 2013, dated 2019)

System: SR-786 tumor cells (SR786 xenograft ALCL model)
Assay: In vivo tumor efficacy model: SR786 xenograft ALCL model, SGN35 and MLN8237 alone or in combination
Design: species or system CB17 SCID female mice
Conditions: for average tumor volume day 15 / average tumor volume day 21: in mm³
Experimental: SR-786 (4.0×10^6) tumor cells in RPMI-1640 media were aseptically injected into the subcutaneous space in the right dorsal flank of CB17 SCID female mice (Taconic Farms, Inc) using a 26 G 5/8 needle.
Brentuximab vedotin (SGN35), one vial (Seattle Genetics) was reconstituted in 10.5 ml sterile water to give a stock solution at 4.76 mg/ml concentration. The stock solution was formulated in 0.9% saline to reach the desired concentration and administered by intraperitoneal injection (IP) q4Dx21 days at 0.3 mg/kg and 0.4 mg/kg.
MLN8237 was formulated in 10% hydroxypropyl-beta-cyclodextrin and 1% sodium bicarbonate (10% HPbCD+1% NaHCO3) and administered by oral injection (1 cc syringe, 20-22 gauge) on QD schedule at 10 mg/kg and 20 mg/kg for 21 days. MLN8237 as used in the experimental section refers to alisertib sodium salt and the amount referenced is the amount of alisertib used.
Tumors were measured twice weekly using a vernier caliper. Tumor volumes were calculated using standard procedures (0.5×[…]). When the tumors reached a volume of approximately 200 mm^3 (SR-786), mice were randomized into 6-8 groups as described in the tables below, and injected with vehicle, MLN8237 or SGN35 or the combination of MLN8237 with SGN35, at various doses as described below in Tables 1 and 2. Tumor size and body weight were measured approximately twice a week for the duration of the study. Mice were euthanized when their tumor volume reached 10% of their body weight, or when the average tumor volume of a treatment or control group reached approximately 2000 mm^3. Tumor growth continued to be monitored after the dosing period in this study. Average tumor volume is reported as a function of time for selected groups in FIG. 1A and FIG. 1B.
The synergy analysis is based on the tumor volume data from day 0 to 21. Volume measurements below 25 cubic mm are excluded from the analysis because very low volumes cannot be measured accurately. The remaining measurements are log transformed and fit to a simple linear model with the measurement day as a covariate. The data are fit separately for the different animals to yield an estimated tumor growth rate for each animal in each treatment group. Based on the growth rates, the synergy score for the combination of agents A and B is defined as 100*(mean(μAB)−mean(μA)−mean(μB)+mean(μctl))/mean(μctl): where μAB, μA, μB, and μctl are the mean tumor growth rates for animals in the combination group, the A group, the B group, and the control group, respectively. The standard error of the synergy score is computed based on the variation in the growth rates among the animals. […] If the P-value is above 0.05, then the combination is considered to be additive. If the P-value is below 0.05, and the synergy score is less than zero, then the combination is considered to be synergistic. […] Otherwise, the combination is classified as antagonistic. Results

Compound | average tumor volume day 15 (10 mg/kg MLN8237, QD, P.O) | average tumor volume day 21 (10 mg/kg MLN8237, QD, P.O) | average tumor volume day 15 (20 mg/kg MLN8237, QD, P.O) | average tumor volume day 21 (20 mg/kg MLN8237, QD, P.O) | tumor growth compared to the control vehicle group (single agent MLN8237 P.O 10 mg/kg and 20 mg/kg QD) | average tumor volume day 15 (0.3 mg/kg SGN35, Q4d, I.P) | average tumor volume day 21 (0.3 mg/kg SGN35, Q4d, I.P) | average tumor volume day 15 (0.4 mg/kg SGN35, Q4d, I.P) | average tumor volume day 21 (0.4 mg/kg SGN35, Q4d, I.P) | tumor growth compared to the control vehicle group (single agent SGN35 0.3 and 0.4 mg/kg I.P Q4d)
COc1cc(Nc2ncc3c(n2)-c2ccc(Cl)cc2C(c2c(F)cccc2OC)=NC3)ccc1C(=O)O [MLN8237, 4-{[9-chloro-7-(2-fluoro-6-methoxyphenyl)-5H-pyrimido[5,4-d][2]benzazepin-2-yl]amino}-2-methoxybenzoic acid] | 625.4 | 1121 | 387.1 | 576.4 | inhibited tumor growth | – | – | – | – | –
SGN35 | – | – | – | – | – | 1136.1 | 1676 | 491.3 | 553.8 | inhibited tumor growth
